ChEMBL document CHEMBL4507291 (2021)

Columns and labels:
[1] = target: Serine/threonine-protein kinase VRK2 (Homo sapiens) (UniProt Q86Y07)
[2] = target: T1, cGMP-dependent protein kinase 2 (Homo sapiens) (UniProt Q13237)
T1 sequence (whole entry): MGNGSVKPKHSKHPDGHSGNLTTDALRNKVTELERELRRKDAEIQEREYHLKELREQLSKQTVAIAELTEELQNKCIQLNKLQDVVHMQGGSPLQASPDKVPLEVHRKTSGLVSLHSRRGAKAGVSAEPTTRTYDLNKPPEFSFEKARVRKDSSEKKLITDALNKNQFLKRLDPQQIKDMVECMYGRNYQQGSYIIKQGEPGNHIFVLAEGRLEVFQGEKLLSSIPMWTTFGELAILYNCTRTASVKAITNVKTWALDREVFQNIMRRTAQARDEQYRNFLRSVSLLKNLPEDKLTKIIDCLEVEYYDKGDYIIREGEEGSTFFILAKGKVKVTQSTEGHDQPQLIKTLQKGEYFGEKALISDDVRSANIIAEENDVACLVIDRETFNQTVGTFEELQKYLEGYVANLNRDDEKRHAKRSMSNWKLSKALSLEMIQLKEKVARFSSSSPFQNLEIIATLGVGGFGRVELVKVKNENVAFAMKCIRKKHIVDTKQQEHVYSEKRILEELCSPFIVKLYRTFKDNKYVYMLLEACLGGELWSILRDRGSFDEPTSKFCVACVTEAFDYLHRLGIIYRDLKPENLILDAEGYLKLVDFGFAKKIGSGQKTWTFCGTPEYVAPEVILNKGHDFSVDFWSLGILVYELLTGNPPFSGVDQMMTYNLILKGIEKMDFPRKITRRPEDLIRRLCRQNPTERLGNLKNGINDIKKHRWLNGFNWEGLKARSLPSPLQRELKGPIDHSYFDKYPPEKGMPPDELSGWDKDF

[3] = target: T2, Activin receptor type-1 (Homo sapiens) (UniProt Q04771)
T2 sequence (whole entry): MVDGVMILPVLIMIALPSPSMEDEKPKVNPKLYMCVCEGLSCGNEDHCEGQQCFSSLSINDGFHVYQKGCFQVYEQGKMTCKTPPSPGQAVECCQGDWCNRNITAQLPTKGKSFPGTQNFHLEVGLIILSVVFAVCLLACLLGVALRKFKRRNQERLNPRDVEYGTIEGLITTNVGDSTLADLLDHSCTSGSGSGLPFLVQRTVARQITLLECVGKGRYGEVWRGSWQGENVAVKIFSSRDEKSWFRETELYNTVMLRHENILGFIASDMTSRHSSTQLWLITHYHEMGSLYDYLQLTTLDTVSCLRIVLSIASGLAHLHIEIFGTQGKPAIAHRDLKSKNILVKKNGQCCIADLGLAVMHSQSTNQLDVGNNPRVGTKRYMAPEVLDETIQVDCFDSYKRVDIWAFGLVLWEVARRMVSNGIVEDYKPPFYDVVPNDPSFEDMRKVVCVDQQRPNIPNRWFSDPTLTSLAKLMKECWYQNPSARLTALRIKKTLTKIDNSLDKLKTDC

[4] = target: Phosphatidylinositol 5-phosphate 4-kinase type-2 beta (Homo sapiens) (UniProt P78356)
[5] = target: Ephrin type-A receptor 4 (Homo sapiens) (UniProt P54764)
[6] = target: Serine/threonine-protein kinase Nek6 (Homo sapiens) (UniProt Q9HC98)
Sequence of Serine/threonine-protein kinase Nek6 (Homo sapiens) (Q9HC98 whole entry): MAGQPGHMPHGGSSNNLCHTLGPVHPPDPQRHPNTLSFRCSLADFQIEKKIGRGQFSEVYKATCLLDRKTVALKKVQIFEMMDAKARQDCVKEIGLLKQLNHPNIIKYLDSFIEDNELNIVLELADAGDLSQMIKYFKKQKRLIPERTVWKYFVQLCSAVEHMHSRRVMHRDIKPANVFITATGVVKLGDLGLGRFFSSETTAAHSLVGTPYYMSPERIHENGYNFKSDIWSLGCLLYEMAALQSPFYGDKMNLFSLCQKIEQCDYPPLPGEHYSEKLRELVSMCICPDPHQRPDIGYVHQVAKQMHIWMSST

[7] = target: Tyrosine-protein kinase CSK (Homo sapiens) (UniProt P41240)
Sequence of Tyrosine-protein kinase CSK (Homo sapiens) (P41240 2-450 limits assumed): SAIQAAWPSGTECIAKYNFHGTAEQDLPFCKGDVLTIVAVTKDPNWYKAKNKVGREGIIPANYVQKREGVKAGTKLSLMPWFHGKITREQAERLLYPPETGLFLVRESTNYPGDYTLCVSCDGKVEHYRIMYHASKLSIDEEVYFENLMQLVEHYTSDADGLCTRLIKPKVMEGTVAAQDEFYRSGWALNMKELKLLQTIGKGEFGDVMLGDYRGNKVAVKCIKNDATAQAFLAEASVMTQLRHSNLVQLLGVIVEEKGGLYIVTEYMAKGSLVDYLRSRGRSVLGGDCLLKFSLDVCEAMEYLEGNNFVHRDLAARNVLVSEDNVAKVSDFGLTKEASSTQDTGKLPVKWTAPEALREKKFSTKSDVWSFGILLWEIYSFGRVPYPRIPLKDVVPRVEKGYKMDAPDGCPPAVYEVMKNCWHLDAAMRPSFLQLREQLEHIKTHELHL

[8] = target: Dual specificity testis-specific protein kinase 1 (Homo sapiens) (UniProt Q15569)
Sequence of Dual specificity testis-specific protein kinase 1 (Homo sapiens) (Q15569 whole entry, looked up): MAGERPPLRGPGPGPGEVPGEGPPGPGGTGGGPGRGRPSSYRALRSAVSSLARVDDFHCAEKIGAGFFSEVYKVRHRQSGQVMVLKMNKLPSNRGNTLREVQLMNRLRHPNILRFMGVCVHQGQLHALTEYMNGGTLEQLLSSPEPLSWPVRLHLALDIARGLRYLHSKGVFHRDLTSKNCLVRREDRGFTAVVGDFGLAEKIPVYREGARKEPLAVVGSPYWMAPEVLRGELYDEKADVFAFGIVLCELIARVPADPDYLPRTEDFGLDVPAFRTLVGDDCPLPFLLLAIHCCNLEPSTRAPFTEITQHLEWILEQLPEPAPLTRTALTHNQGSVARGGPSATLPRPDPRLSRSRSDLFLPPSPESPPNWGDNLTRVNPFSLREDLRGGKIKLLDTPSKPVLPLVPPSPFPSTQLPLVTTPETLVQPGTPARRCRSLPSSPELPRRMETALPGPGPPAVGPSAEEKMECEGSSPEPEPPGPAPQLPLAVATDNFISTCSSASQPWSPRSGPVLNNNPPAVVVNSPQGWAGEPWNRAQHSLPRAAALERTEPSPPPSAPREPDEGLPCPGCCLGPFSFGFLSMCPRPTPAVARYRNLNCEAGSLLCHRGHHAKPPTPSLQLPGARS

[9] = target: Mitogen-activated protein kinase 11 (Homo sapiens) (UniProt Q15759)
Sequence of Mitogen-activated protein kinase 11 (Homo sapiens) (Q15759 whole entry): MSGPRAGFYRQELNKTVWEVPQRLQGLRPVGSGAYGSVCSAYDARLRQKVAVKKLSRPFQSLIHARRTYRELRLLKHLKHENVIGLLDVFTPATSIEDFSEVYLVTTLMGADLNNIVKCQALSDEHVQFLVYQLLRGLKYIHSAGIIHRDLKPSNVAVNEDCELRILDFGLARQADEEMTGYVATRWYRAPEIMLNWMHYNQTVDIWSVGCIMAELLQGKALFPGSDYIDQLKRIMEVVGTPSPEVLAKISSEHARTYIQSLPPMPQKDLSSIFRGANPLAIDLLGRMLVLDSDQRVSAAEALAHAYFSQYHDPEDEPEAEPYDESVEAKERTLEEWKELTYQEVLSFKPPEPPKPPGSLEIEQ

[10] = target: cAMP-dependent protein kinase catalytic subunit alpha (Homo sapiens) (UniProt P17612)
[11] = target: Serine/threonine-protein kinase OSR1 (Homo sapiens) (UniProt O95747)
Sequence of Serine/threonine-protein kinase OSR1 (Homo sapiens) (O95747 2-527 limits assumed): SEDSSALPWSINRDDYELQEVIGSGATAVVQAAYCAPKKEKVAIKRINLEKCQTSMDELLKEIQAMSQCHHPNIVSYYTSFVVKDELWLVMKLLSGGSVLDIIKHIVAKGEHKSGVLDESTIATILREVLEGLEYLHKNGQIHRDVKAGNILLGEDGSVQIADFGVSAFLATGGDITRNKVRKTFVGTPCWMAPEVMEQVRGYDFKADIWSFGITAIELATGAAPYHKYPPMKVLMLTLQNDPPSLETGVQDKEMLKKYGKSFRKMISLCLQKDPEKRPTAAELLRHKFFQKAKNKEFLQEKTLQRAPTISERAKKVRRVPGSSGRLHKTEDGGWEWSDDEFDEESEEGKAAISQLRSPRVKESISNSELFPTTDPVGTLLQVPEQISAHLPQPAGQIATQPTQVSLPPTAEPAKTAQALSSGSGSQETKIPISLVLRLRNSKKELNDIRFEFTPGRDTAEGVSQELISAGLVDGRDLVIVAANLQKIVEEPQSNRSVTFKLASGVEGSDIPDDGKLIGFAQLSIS

[12] = tested on: ALK tyrosine kinase receptor (Homo sapiens), Q9UM73 [C1156Y]
[13] = target: T3, 5-hydroxytryptamine receptor 2C (Homo sapiens) (UniProt P28335); conditions: Compound concentration 10.0 uM
T3 sequence (whole entry): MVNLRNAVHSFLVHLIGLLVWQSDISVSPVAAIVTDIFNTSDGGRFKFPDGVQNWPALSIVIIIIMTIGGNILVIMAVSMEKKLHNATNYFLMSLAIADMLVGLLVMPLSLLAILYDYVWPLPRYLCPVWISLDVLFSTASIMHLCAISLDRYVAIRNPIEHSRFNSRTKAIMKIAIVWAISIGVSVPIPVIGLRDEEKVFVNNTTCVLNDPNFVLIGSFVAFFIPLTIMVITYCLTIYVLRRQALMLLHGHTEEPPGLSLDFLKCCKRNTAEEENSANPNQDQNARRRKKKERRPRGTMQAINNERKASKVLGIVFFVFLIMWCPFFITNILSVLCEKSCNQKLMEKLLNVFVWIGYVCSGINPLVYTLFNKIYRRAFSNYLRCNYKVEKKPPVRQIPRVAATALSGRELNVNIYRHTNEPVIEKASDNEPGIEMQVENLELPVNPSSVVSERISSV

[14] = target: Mitogen-activated protein kinase kinase kinase 6 (Homo sapiens) (UniProt O95382)
Sequence of Mitogen-activated protein kinase kinase kinase 6 (Homo sapiens) (O95382 whole entry): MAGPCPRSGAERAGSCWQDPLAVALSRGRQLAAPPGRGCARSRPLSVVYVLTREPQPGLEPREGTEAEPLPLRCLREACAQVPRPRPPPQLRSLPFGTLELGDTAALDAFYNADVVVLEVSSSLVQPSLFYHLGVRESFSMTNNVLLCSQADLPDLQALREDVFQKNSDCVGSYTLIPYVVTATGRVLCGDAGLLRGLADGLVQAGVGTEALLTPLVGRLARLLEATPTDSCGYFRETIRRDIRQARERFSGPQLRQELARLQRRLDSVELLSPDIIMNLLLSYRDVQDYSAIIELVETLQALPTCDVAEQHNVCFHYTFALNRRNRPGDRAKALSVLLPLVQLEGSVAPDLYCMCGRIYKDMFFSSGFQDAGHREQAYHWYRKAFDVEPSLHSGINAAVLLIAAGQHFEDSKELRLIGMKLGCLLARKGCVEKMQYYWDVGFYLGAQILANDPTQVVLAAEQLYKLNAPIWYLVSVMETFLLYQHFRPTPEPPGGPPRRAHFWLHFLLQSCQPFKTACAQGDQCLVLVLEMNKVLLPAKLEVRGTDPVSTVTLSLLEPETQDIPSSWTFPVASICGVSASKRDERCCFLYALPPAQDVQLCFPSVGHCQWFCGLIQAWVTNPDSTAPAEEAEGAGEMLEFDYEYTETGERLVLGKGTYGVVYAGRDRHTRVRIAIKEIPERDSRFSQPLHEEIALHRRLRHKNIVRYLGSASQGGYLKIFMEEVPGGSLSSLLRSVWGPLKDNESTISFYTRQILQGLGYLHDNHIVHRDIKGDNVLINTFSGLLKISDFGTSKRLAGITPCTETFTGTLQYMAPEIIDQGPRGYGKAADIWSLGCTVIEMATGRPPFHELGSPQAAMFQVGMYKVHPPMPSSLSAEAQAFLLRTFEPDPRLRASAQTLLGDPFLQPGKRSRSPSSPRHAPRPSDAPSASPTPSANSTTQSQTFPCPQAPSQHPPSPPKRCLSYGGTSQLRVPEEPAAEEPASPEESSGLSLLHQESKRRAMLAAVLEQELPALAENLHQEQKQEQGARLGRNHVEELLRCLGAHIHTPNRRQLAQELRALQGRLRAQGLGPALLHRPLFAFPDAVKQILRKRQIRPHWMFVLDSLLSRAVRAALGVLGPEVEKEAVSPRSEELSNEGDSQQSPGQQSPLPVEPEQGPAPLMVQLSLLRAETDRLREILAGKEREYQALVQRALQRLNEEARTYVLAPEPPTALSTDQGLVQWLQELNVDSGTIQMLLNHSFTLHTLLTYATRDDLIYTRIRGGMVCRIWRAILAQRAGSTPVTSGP

[15] = target: SRSF protein kinase 3 (Homo sapiens) (UniProt Q9UPE1)
Sequence of SRSF protein kinase 3 (Homo sapiens) (Q9UPE1 whole entry): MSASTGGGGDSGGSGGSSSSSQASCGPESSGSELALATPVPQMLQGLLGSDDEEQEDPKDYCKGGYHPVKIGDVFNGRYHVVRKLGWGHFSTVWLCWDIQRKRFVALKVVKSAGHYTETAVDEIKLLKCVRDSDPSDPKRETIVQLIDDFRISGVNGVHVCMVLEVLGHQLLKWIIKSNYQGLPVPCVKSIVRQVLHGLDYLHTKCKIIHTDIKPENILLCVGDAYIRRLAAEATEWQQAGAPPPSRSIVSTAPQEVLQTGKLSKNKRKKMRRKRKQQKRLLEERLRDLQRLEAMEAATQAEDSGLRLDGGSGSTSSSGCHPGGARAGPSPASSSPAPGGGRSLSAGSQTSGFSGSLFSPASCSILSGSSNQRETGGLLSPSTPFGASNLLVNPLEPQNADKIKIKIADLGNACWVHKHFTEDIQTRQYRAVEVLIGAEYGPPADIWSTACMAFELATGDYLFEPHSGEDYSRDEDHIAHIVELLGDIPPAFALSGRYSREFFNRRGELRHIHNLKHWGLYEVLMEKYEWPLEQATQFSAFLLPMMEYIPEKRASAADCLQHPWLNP

[16] = tested on: Tyrosine-protein kinase ABL1 (Homo sapiens), P00519 [Y253F]
[17] = Compound concentration 1000.0 nM
[18] = Compound concentration 100.0 nM

Sequence of Serine/threonine-protein kinase VRK2 (Homo sapiens) (Q86Y07 whole entry): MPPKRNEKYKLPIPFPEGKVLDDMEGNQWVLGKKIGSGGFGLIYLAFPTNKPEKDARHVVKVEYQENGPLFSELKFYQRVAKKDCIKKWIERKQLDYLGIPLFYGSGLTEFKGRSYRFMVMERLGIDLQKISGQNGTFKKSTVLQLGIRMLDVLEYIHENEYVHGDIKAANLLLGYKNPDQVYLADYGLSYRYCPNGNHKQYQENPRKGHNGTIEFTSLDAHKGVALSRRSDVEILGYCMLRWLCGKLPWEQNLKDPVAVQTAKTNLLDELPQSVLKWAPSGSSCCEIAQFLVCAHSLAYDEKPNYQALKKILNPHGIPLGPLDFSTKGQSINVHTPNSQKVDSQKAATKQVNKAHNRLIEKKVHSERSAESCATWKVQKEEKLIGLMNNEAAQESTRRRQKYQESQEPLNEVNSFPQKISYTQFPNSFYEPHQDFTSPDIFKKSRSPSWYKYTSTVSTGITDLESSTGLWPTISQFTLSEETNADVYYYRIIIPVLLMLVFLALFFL

C[C@@H]1CN(c2cc(-c3nn(C)c4ccc(OC5(C)CC5)cc34)ncn2)C[C@H](C)O1 [MLi-2-NC]
inactive: residual activity [1, 17] 73% | residual activity [2, 17] 85% | residual activity [3, 17] 96% | residual activity [4, 17] 84% | residual activity [5, 17] 100% | residual activity [6, 17] 100% | residual activity [7, 17] 100% | residual activity [8, 17] 100% | residual activity [9, 17] 88% | residual activity [10, 17] 95% | residual activity [11, 17] 93% | residual activity [12, 17] 82% | inhibition [13] 18.7% | residual activity [14, 17] 76% | residual activity [15, 17] 98% | residual activity [16, 17] 80%

C[C@@H]1CN(c2cc(-c3n[nH]c4ccc(OC5(C)CC5)cc34)ncn2)C[C@H](C)O1 [MLi-2]
inactive: residual activity [1, 18] 65% | residual activity [2, 18] 79% | residual activity [3, 18] 90% | residual activity [4, 18] 81% | residual activity [5, 18] 89% | residual activity [6, 18] 100% | residual activity [7, 18] 100% | residual activity [8, 18] 75% | residual activity [9, 18] 89% | residual activity [10, 18] 85% | residual activity [11, 18] 72% | residual activity [12, 18] 89% | inhibition [13] 7.65% | residual activity [14, 18] 59% | residual activity [15, 18] 100% | residual activity [16, 18] 66%
